The results in this text go back to patent US7335501B1, “Phytases and methods for producing these phytases” (Adisseo France S.A.S., priority 2001, dated 2008).

This assay relates to Penicillium sp. CBS 109899 phytase (wild type, SEQ ID NO: 3), in crude fungal extract. Description: Michaelis-Menten constants of the phytase contained in the crude fungal extract (phosphate release from sodium phytate, method of Shimizu). It counts as biochemical. Particulars: substrate sodium phytate, 250 mM acetate buffer with 1 mM CaCl2, pH 5.5, 37° C. How it is done:
The measurement of phytase activity is based on the method of Shimizu (1992, Biosci. Biotech. Biochem. 56(8), 1266-1269). The principle of this method consists in measuring the amount of inorganic phosphate released during the enzymatic reaction of the phytase with its substrate (solution of sodium phytate prepared at 10 g/l in a 250 mM acetate buffer containing 1 mM CaCl2, pH 5.5). The amount of inorganic phosphate released is measured by reaction of this phosphate with a chromogenic reagent (1 volume of iron sulfate at 10.8% mixed extemporaneously with 4 volumes of ammonium molybdate at 0.012M H2SO4). This reaction leads, in highly acidic medium, to the formation of a colored phosphomolybdate complex (in the presence of Fe^2+), and the amount of complex formed is quantified by measuring the absorbance at 700 nm of the colored solution generated, on a spectrophotometer.
Three reactions are carried out in parallel in order to produce enzymatic kinetics at 10, 20 and 30 minutes at 37° C. […] The sample interference is determined by adding the 20% trichloroacetic acid and then the phytic acid to the crude extract, which may or may not be diluted. […] The intensity of the blue coloration is measured by spectrophotometry at 700 nm. […] The enzymatic activity is determined using the rate of appearance of the phosphate in the course of the enzymatic kinetics. […]

As to `O=P(O)(O)O[C@H]1[C@H](OP(=O)(O)O)[C@@H](OP(=O)(O)O)[C@H](OP(=O)(O)O)[C@@H](OP(=O)(O)O)[C@H]1OP(=O)(O)O` [sodium phytate], the “Vmapp (maximum reaction rate)” value is 1.425 μmol of phosphate released per minute and per mg of sample. Moreover, the Km (substrate concentrations and incubation times modified, read-out: Kmapp) worked out at 550 µM.
